Measurements from patent publication US12036262B2, “Edible plant-derived nanoparticles for regulation of gut microbiota” (University of Louisville Research Foundation, Inc., priority 2017, dated 2024).

Experiments:
[1] = tested on: SpaC; assay: Immunogold labeling of LGG pili and TEM; assay type: cell-based, Lactobacillus rhamnosus; settings: compared with PBS or scrambled miRNA
Experimental: Immunogold Labeling of LGG Pili and TEM. To visualize LGG pili via transmission electron microscopy (TEM), LGG cultures were grown overnight (OD600<1.0) and washed once with PBS. Formvar-carbon-coated copper grids (Electron Microscopy Sciences, Hatfield, Pennsylvania, United States of America) first were floated for 1 hour on droplets of the diluted LGG at 10^7/mL in PBS, washed several times with 0.02 M glycine in PBS, and then treated with a blocking solution of 1% bovine serum albumin (BSA) in PBS. The grids were then floated for 1 hour on droplets of anti-SpaC serum (1:100) in blocking solution. After a wash with 0.1% BSA in PBS, the grids were incubated for 20 minutes with protein A-conjugated 10-nm-diameter gold particles (Cytodiagnostics, Burlington, Ontario, Canada) diluted 1:55 in blocking solution. After one wash in PBS, the grids were fixed with 1% glutaraldehyde, washed with distilled water, and then stained with 1% ammonium molybdate on the surface of the EM grid. After excess ammonium molybdate was removed from the grid, images were visualized using a Thermo-Fisher TEM Tecnai Spirit at 80 kV, and images were collected with an AMT XR60 digital camera.

[2] = tested on: SpaC fragment with ath-miR167a binding site; assay: SpaC-pGFPuv GFP reporter in E. coli (FACS); assay type: cell-based
Experimental: Plasmid Construction and Mutagenesis. The SpaC fragment (339-800, LGG RS02140) spanning the sequences of the potential target (710-717) of GELN ath-miR167a was obtained by PCR with cDNA from LGG RNA. PCR was performed using a Bio-Rad thermal cycler T100. The 462-bp PCR product amplified by the primer pair SpaC-pGFPuv-F: 5′-[…]-3′ (SEQ ID NO: 1) and SpaC-pGFPuv-R: 5′-[…]-3′ (SEQ ID NO: 2) was ligated into the Sphl and Xbal restriction enzyme sites of a pGFPuv vector (Takara Bio/Clontech, Mountain View, California, United States of America) to obtain a green fluorescent protein (GFP) expression reporter. SpaC-pGFPuv fused with the SpaC gene fragment, which can be expressed in prokaryotic cells. To generate mutants of SpaC, the oligonucleotide primers SpaCMut-F, 5′-[…] […]
Flow Cytometry. […] Data were acquired using a BD FACSCalibur flow cytometer (BD Biosciences, San Jose, California, United States of America) and analyzed using FlowJo software (Tree Star Inc., Ashland, Oregon, United States of America). To visualize bacteria stained with PKH26/67 and transformed with SpaC-pGFPuv plasmid, the PKH26/67-positive and GFP-positive bacteria were detected by flow cytometry using a BD FACSCalibur flow cytometer (BD Biosciences, San Jose, California, United States of America), and data were analyzed using FlowJo software (Tree Star Inc., Ashland, Oregon, United States of America).

ath-miR167a: GELN miRNA, SEQ ID NO: 9 (UGAAGCUGCCAGCAUGAUCUA; expressed or natural sequence)
SpaC protein on pili of LGG (TEM) [1]: much less SpaC protein could be detected on pili
GFP expression with mutation that disrupted the binding site [2]: entirely restored GFP expression
